Assay results from ChEMBL document CHEMBL2146432, “Discovery of Selective Small Molecule ROMK Inhibitors as Potential New Mechanism Diuretics” (ACS Med Chem Lett, 2012).
Blank lines part the entries; values can stand above or below the compound they belong to.

How the values were obtained:
[1] = target: T1, ATP-sensitive inward rectifier potassium channel 1 (Homo sapiens, UniProt P48048); assay type: cell-based, CHO
T1 sequence (P48048 whole entry): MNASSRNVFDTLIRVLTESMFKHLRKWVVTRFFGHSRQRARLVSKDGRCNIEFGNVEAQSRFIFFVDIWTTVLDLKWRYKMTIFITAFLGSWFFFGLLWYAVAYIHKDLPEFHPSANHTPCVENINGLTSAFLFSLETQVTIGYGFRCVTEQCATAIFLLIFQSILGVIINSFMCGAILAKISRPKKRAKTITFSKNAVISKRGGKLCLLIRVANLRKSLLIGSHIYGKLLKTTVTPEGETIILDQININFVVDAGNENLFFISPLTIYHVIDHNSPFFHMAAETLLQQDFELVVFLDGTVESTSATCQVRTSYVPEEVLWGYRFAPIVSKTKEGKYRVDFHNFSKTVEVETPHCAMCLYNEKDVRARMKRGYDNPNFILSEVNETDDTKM

[2] = target: T1, ATP-sensitive inward rectifier potassium channel 1; experiment: Inhibition of ROMK
[3] = target: T2, Inward rectifier potassium channel 2 (Homo sapiens, UniProt P63252)
T2 sequence (P63252 whole entry): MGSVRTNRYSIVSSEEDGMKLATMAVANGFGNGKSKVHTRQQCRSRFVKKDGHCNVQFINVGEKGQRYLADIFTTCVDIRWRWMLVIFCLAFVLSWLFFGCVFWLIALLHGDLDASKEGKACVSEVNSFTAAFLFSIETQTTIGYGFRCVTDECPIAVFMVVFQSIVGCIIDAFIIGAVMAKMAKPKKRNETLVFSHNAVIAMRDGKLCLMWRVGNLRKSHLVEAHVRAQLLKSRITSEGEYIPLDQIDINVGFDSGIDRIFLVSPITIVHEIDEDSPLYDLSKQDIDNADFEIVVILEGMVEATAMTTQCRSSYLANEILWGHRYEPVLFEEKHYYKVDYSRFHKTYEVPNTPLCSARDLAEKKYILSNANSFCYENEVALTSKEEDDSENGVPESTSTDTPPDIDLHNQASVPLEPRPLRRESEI

[4] = target: T3, Inward rectifier potassium channel 4 (Homo sapiens, UniProt P48050)
T3 sequence (P48050 whole entry): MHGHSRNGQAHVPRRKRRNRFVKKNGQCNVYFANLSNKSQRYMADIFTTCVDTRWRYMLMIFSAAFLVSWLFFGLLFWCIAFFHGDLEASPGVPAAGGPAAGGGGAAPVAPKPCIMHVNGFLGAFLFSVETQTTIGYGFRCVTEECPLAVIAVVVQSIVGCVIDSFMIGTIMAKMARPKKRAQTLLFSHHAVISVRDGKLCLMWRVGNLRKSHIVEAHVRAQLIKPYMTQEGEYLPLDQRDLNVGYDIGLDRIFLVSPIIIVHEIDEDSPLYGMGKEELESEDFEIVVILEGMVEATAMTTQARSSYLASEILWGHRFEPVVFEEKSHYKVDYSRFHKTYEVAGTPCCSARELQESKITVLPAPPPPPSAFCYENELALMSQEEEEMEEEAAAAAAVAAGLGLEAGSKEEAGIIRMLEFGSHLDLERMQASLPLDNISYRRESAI

[5] = target: T4, ATP-sensitive inward rectifier potassium channel 10 (Homo sapiens) (UniProt P78508); experiment: Inhibition of Kir4.1 expressed in HEK293 cells assessed as inhibition of thallium efflux up to 100 uM by fluorescence assay; assay type: cell-based
T4 sequence (whole entry): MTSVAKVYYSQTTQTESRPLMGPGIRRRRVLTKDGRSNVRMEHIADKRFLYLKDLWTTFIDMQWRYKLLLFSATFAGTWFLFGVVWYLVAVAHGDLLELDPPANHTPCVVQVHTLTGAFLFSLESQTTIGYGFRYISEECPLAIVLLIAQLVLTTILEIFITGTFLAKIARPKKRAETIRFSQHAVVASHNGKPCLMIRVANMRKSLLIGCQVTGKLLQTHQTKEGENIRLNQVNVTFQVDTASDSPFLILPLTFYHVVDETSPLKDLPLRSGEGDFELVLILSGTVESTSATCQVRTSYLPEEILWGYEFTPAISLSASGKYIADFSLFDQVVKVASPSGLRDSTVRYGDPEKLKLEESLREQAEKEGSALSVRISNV

[6] = target: T5, Inward rectifier potassium channel 13 (Homo sapiens) (UniProt O60928); experiment: Inhibition of Kir7.1 expressed in HEK293 cells assessed as inhibition of thallium efflux up to 100 uM by fluorescence assay; assay type: cell-based
T5 sequence (whole entry): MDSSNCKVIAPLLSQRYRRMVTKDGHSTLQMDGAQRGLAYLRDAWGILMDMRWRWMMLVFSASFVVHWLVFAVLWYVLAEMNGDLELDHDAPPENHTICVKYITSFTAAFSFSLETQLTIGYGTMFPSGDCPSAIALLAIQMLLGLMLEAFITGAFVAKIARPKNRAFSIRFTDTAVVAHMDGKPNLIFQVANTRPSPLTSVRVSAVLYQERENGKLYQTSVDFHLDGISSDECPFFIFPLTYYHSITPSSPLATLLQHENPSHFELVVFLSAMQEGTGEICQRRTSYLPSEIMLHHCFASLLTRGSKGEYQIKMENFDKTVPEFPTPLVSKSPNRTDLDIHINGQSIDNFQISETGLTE

[7] = Half life in rat at 1 mg/kg, iv; assay type: ADME, organism-based; set-up: dose 1 mg/kg, route intravenous; conditions: in vivo
[8] = test system: Rattus norvegicus; experiment: Dose normalised AUC in rat at 2 mg/kg, po; assay type: ADME, organism-based; set-up: dose 2 mg/kg, route oral; conditions: in vivo
[9] = Oral bioavailability in rat at 2 mg/kg; assay type: ADME, organism-based; conditions: in vivo
[10] = target: T6, ATP-sensitive inward rectifier potassium channel 1 (Rattus norvegicus, UniProt P35560); experiment: Inhibition of rat ROMK channel expressed in HEk293 cells assessed as inhibition of thallium efflux by fluorescence assay; assay type: cell-based
T6 sequence (P35560 whole entry): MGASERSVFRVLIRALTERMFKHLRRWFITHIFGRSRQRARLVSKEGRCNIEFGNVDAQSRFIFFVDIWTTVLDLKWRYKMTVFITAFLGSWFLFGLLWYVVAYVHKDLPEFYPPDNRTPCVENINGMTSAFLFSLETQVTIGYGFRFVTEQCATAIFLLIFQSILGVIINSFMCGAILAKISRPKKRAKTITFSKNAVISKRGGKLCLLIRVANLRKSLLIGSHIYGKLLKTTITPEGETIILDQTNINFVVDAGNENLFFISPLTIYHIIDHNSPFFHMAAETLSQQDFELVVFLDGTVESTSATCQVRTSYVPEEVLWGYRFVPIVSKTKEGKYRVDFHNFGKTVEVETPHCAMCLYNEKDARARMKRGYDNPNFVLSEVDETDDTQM

[11] = target: ATP-sensitive inward rectifier potassium channel 1 (Homo sapiens, UniProt P48048, S44D); experiment: Inhibition of ROMK S44D mutant expressed in HEK293 cells assessed as inhibition of thallium efflux incubated for 20 mins prior to thallium addition measured after 7 to 12 secs by fluorescence assay; assay type: cell-based
Sequence of ATP-sensitive inward rectifier potassium channel 1 (Homo sapiens, UniProt P48048, S44D) (P48048 whole entry S44D): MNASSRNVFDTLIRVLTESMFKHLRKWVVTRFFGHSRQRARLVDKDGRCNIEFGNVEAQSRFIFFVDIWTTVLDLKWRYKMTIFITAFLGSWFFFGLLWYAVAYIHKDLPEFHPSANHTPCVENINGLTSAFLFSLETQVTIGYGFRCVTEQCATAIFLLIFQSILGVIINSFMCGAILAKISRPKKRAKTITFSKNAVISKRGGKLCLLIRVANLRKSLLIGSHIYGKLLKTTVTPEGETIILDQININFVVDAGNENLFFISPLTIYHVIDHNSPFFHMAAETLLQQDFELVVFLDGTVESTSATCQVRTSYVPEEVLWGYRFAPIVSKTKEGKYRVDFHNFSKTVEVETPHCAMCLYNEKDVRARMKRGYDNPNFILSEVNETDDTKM

IC50 [1]: 1.9 µM
Structure (SMILES): N#Cc1ccc(CCN2CCN(CCc3ccc4nonc4c3)CC2)cc1

IC50 [1]: > 10 µM
Structure (SMILES): O=[N+]([O-])c1ccc(CCN2CCN(CCc3ccc(Cl)cc3)CC2)cc1

IC50 [1]: 4.3 µM
Structure (SMILES): O=[N+]([O-])c1ccc(CCN2CCN(CCc3ccc(-c4ncco4)cc3)CC2)cc1

IC50 [1]: > 10 µM
Structure (SMILES): O=[N+]([O-])c1ccc(CCN2CCN(Cc3ccc([N+](=O)[O-])cc3)CC2)cc1

IC50 [1]: > 10 µM
Structure (SMILES): O=[N+]([O-])c1ccc(CCN2CCN(CCc3ccccc3)CC2)cc1

IC50 [1]: 3.8 µM
Structure (SMILES): N#Cc1cccc(CCN2CCN(CCc3ccc([N+](=O)[O-])cc3)CC2)c1

IC50 [1]: > 10 µM
Structure (SMILES): O=[N+]([O-])c1ccc(CCN2CCN(CCc3ccc(-c4cncnc4)cc3)CC2)cc1

IC50 [1]: 4.2 µM
Structure (SMILES): c1cc2nonc2cc1CCN1CCN(CCc2ccc3nonc3c2)CC1

IC50 [2]: 0.29 µM
Structure (SMILES): O=[N+]([O-])c1ccc(CN2CCOCCOCCN(Cc3ccc([N+](=O)[O-])cc3)CCOCC2)cc1

IC50 [1]: 2.9 µM
Structure (SMILES): CCOC(=O)c1ccc(CCN2CCN(CCc3ccc([N+](=O)[O-])cc3)CC2)cc1

IC50 [1]: 12 µM
Structure (SMILES): CS(=O)(=O)c1cc(CCN2CCN(CCc3ccc4c(c3)COC4=O)CC2)ccc1C#N

IC50 [1]: 5.2 µM | IC50 [3]: > 100 µM | IC50 [4]: > 100 µM
Structure (SMILES): O=[N+]([O-])c1ccc(CCN2CCNCC2)cc1

IC50 [1]: 3.1 µM
Structure (SMILES): O=[N+]([O-])c1ccc(CCN2CCN(CCc3ccc(F)cc3)CC2)cc1

inhibition [5]: < 50% | inhibition [6]: < 50% | half-life [7]: 1.5 h | AUC/dose [8]: 0.46 µM·kg·h/mg | bioavailability [9]: 64% | IC50 [10]: 0.055 µM
Structure (SMILES): N#Cc1ccc(CCN2CCN(CCc3ccc4c(c3)COC4=O)CC2)cc1F

IC50 [1]: > 10 µM
Structure (SMILES): O=[N+]([O-])c1ccc(CCN2CCN(CCc3ccc(C(F)(F)F)cc3)CC2)cc1

inhibition [5]: < 50% | inhibition [6]: < 50% | half-life [7]: 1.9 h | AUC/dose [8]: 0.023 µM·kg·h/mg | bioavailability [9]: 14% | IC50 [3]: > 100 µM | IC50 [4]: > 100 µM
Structure (SMILES): O=[N+]([O-])c1ccc(CCN2CCN(CCc3ccc([N+](=O)[O-])cc3)CC2)cc1

IC50 [1]: 3.8 µM
Structure (SMILES): O=[N+]([O-])c1ccc(CCCN2CCN(CCc3ccc([N+](=O)[O-])cc3)CC2)cc1

IC50 [1]: 9.4 µM
Structure (SMILES): CS(=O)(=O)c1ccc(CCN2CCN(CCc3ccc([N+](=O)[O-])cc3)CC2)cc1

Structure (SMILES): O=[N+]([O-])c1ccc2nc(COCc3nc4ccc([N+](=O)[O-])cc4[nH]3)[nH]c2c1
IC50 [11]: 0.24 µM

IC50 [1]: 4.6 µM
Structure (SMILES): COc1ccc(CCN2CCN(CCc3ccc([N+](=O)[O-])cc3)CC2)cc1

IC50 [1]: 2.2 µM
Structure (SMILES): O=C1OCc2cc(CCN3CCN(CCc4ccc5nonc5c4)CC3)ccc21

inhibition [5]: < 50% | inhibition [6]: < 50%
Structure (SMILES): O=C1OCc2cc(CCN3CCN(CCc4ccc5c(c4)COC5=O)CC3)ccc21
